We go through seven compounds from patent US20090062537A1, “N-Formyl Hydrozyamine Compounds” (priority 2006, published 2009).

The target of experiment [1] is T1, Streptococcus pneumoniae peptide deformylase, wild type (W.T.) (Streptococcus pneumoniae serotype 4, UniProt Q9F2F0).
T1 sequence (Q9F2F0 1-203): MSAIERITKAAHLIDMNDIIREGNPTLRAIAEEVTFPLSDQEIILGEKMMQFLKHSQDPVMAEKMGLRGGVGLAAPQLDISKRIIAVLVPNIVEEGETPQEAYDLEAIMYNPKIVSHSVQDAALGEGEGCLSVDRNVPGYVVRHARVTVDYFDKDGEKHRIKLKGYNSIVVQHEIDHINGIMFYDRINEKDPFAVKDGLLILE
As to the kind of experiment: Inhibition of S. pneumoniae peptide deformylase activity, wild type enzyme. In kind it is biochemical. The following applies: PDF W.T. The protocol:
(§1) A PDF/FDH coupled assay (Lazennec et al., Anal. Biochem., Vol. 224, pp. 180-182 (1997)) is used. In this coupled assay, the formate released by PDF from its substrate fMAS is oxidized by the coupling enzyme FDH, reducing one molecule of NAD^+ to NADH, which causes an increase in absorption at 340 nm. All assays are carried out at room temperature in a buffer of 50 mM HEPES, pH 7.2, 10 mM NaCl, 0.2 mg/mL BSA, In half-area 96-well microtiter plates (Corning). The reaction is initiated by adding a mixture of 0.5 Unit/mL FDH, 1 mM NAD^+, and fMAS at the desired concentration. To determine IC50 (the concentration needed to inhibit 50% of enzyme activity) values, PDF is pre-incubated for 10 minutes with varying concentrations of the inhibitor, and the deformylation reaction is initiated by the addition of reaction mixture containing 4 mM fMAS. The initial reaction velocity, y, is measured as the initial rate of absorption increase at […] using a SpectraMax plate reader (Molecular Devices, Sunnyvale, Calif.). The Inhibitor concentration [In] at which 50% of the enzyme activity is inhibited, IC50, is calculated using the following formula:
(§2) where yo is the reaction velocity in the absence of inhibitor. Solving this equation for IC50 at the [In] when y=yo/2 yields IC50. The IC50 is calculated based on a nonlinear least-square regression fit using a commercial software package (Deltapoint, Inc., Chicago, Ill.).
(§3) Peptide deformylase activity is essential for growth of S. pneumoniae. The mutants that are selected on NVP-LBM415 were not compromised for growth in vitro, therefore the mutations in defB that confer resistance to these compounds would not be expected to dramatically alter enzymatic activity. To test this hypothesis, the kinetics of peptide deformylase activity are determined using the substrate f-Met-Ala-Ser.
(§4) To investigate further, the IC50s and MICs of specific pairs of compounds differing only in this feature are determined.

The target in experiment [2] is T2, Streptococcus pneumoniae peptide deformylase G70V mutant (Streptococcus pneumoniae serotype 4, UniProt Q9F2F0, G70V).
T2 sequence (Q9F2F0 1-203 G70V): T1 sequence (Q9F2F0 1-203) with G70V
Kind of experiment: Inhibition of S. pneumoniae peptide deformylase activity, G70V mutant enzyme. In kind it is biochemical. The settings on record: PDF G70V. The protocol:
as §1, §2, §3, §4

The test system of experiment [3] is Streptococcus pneumoniae PDF G70D mutant. As to the kind of experiment: MIC, culture growth of S. pneumoniae PDF G70D mutant. In kind it is cell-based. The settings on record: PDFG70DMUTANT. The protocol:
(§5) Minimum inhibitory concentrations (MICs) are determined using the microdilution method In 96-well format plates. Compounds are suspended in DMSO at 5 or 10 mg/mL and stored at 4° C. until used. They are diluted in Mueller-Hinton Broth (MHB) or Trypticase Soy Broth (TSB) and used for MIC determination. The range of concentrations tested is 64-0.0625 μg/mL final concentration using a two-fold dilution system.
(§6) The inoculum is prepared from cells grown on Trypticase Soy Agar (TSA) and incubated overnight at 35° C., 5-10 colonies are used to inoculate MHB or TSB broths, and the culture is incubated overnight at 35° C. The overnight culture is diluted 1:10, incubated for 1 hour at 35° C., diluted to the appropriate inoculum size and applied to the wells containing broth and test compound. Inoculum sizes are 2×10^4 CFU/mL.
as §4

Experiment [4] deals with Streptococcus pneumoniae PDF G70V mutant. Kind of experiment: MIC, culture growth of S. pneumoniae PDF G70V mutant. In kind it is cell-based. The following applies: PDFG70VMUTANT. As to the method:
as §5, §6, §4

The subject of experiment [5] is Streptococcus pneumoniae (wild type PDF). Kind of experiment: MIC, culture growth of S. pneumoniae with wild type PDF. In kind it is cell-based. The following applies: PDF W.T. As to the method: as §5, §6, §4
The target of experiment [6] is T3, Streptococcus pneumoniae peptide deformylase G70D mutant (Streptococcus pneumoniae serotype 4, UniProt Q9F2F0, G70D).
T3 sequence (Q9F2F0 1-203 G70D): T1 sequence (Q9F2F0 1-203) with G70D
Kind of experiment: Inhibition of S. pneumoniae peptide deformylase activity, G70D mutant enzyme. In kind it is biochemical. The settings on record: PDF G70D. As to the method:
as §1, §2, §3, §4

Numbering of substitutions follows the chain as printed. Values after ≈ are worked out from the molar mass of the structure shown.

Usually IC50 stands for the midpoint of a concentration-inhibition curve. The low end stands for higher potency, the high end for lower potency. As usually defined, the MIC is the least concentration at which growth counts as inhibited. Low readings indicate inhibition by little substance, high ones a need for much substance. `O=CN(O)C[C@@H](CC1CCCC1)C(=O)N1C[C@H](F)C[C@H]1C(=O)Nc1cncc[n+]1[O-]`: the IC50 was 0.37 ± 0.02 nM in experiment [1], 2.05 nM in experiment [2] and 0.91 nM in experiment [6]. Further, the figures for the MIC in experiment [3], in experiment [4] and in experiment [5] were 1 µg/mL (≈ 2.36 µM), 2.67 µg/mL (≈ 6.31 µM) and 0.29 ± 0.11 µg/mL (≈ 0.685 µM), respectively.

Regarding `CCCC[C@H](CN(O)C=O)C(=O)N1C[C@@H](C(C)C)C[C@H]1C(=O)Nc1ccc(F)cn1`, the values for the half-inhibitory concentration (IC50) in experiment [1], in experiment [2] and in experiment [6] were 0.31 ± 0.04 nM, 1.01 nM and 0.46 nM, respectively. The MIC is 1.57 µg/mL (≈ 3.72 µM) in experiment [3], 2.86 µg/mL (≈ 6.77 µM) in experiment [4] and 1.43 ± 0.2 µg/mL (≈ 3.38 µM) in experiment [5].

Consider `CCCC[C@H](CN(O)C=O)C(=O)N1C[C@@H](C(C)C)C[C@H]1C(=O)Nc1ccc(F)c[n+]1[O-]`, for which the IC50 was 0.23 ± 0.04 nM in experiment [1], 1.78 nM in experiment [2] and 1.38 ± 0.78 nM in experiment [6]. The results for the MIC in experiment [3], in experiment [4] and in experiment [5] were 10.3 µg/mL (≈ 23.4 µM), 10.3 µg/mL (≈ 23.5 µM) and 1.42 ± 0.2 µg/mL (≈ 3.24 µM), respectively.

As to `CCCC[C@H](CN(O)C=O)C(=O)N1CCC[C@H]1C(=O)Nc1ccc(F)c[n+]1[O-]` [reference compound], the half-inhibitory concentration (IC50) is 0.31 ± 0.03 nM in experiment [1], 1.35 nM in experiment [2] and 1.28 nM in experiment [6]. Also, the figures for the minimum inhibitory concentration (MIC) in experiment [3], in experiment [4] and in experiment [5] were 6.44 µg/mL (≈ 16.2 µM), 5.8 µg/mL (≈ 14.6 µM) and 0.45 ± 0.07 µg/mL (≈ 1.14 µM), respectively.

For the compound `CCCC[C@H](CN(O)C=O)C(=O)N1C[C@H](C(C)C)C[C@H]1C(=O)Nc1ccc(F)c[n+]1[O-]`, the values for the IC50 in experiment [1], in experiment [2] and in experiment [6] were 0.31 ± 0.03 nM, 1.56 nM and 1.19 nM, respectively. Also, the MIC was 5.14 µg/mL (≈ 11.7 µM) in experiment [3], 6.3 µg/mL (≈ 14.4 µM) in experiment [4] and 0.64 ± 0.09 µg/mL (≈ 1.46 µM) in experiment [5].

For the compound `CCCC[C@H](CN(O)C=O)C(=O)N1C[C@H](C(C)C)C[C@H]1C(=O)Nc1ccc(F)cn1`, the IC50 in experiment [1] was 0.27 ± 0.03 nM; in experiment [2], 0.7 nM; in experiment [6], 0.25 nM. Besides, the minimum inhibitory concentration (MIC) is 1.07 µg/mL (≈ 2.53 µM) in experiment [3], 1.43 µg/mL (≈ 3.38 µM) in experiment [4] and 0.71 ± 0.1 µg/mL (≈ 1.68 µM) in experiment [5].

With `O=CN(O)C[C@@H](CC1CCCC1)C(=O)N1C[C@H](F)C[C@H]1C(=O)Nc1cnccn1`, the IC50 in experiment [1] is 0.25 ± 0.04 nM; in experiment [2], 0.5 nM; in experiment [6] it was 0.34 nM. Also, the MIC was 0.25 µg/mL (≈ 0.614 µM) in experiment [3], 0.33 µg/mL (≈ 0.81 µM) in experiment [4] and 0.16 ± 0.1 µg/mL (≈ 0.393 µM) in experiment [5].
